In one test the target is ERK protein (Homo sapiens, UniProt P28482). Kind of test: TdF (Temperature Dependence Fluorescence, thermal shift) assay for ERK. Type of test: binding. The settings on record: read-out: TdF Kd; 3 μM ERK protein, 15, 50 or 100 μM compound, Sypro Orange; Kd calculated from ΔTm; uncertainty estimated ±50%. The source says:
Assays: TdF Assay for ERK
The SAR (Structure Activity Relationship) for ERK ligands covered by this invention was interrogated using the TdF (Temperature Dependence Fluorescence) assay or best known as thermal shift assay. The TdF assay was mainly conducted in the 96-well based CHROMO-4 real time fluorescence plate reader (BioRad). The Sypro Orange (Sigma-Aldrich), environmentally sensitive fluorescence dye, was used to monitor the protein folding-unfolding transition. Protein-ligand binding was gauged by the change (or shift) in the unfolding transition temperature (ΔTm) acquired at protein alone with respect to protein in the presence of ligand of interest.
Compound of interest was first prepared in DMSO stock (typical concentration: 10 mM). Sample of 20 μL was then added into the 96-well PCR plate, where it consisted of 3 μM. […] Final percentage of DMSO resided in the sample was 2%. The sample plate was heated from 30° C. to 90° C. with thermal ramping rate of 1 ° C./min. The fluorescence signals were acquired with excitation and emission wavelengths centered at 490 and 560 nm respectively. The instrument thermal stability was ±0.2° C. The melting temperatures (Tm) for ERK protein under aforementioned conditions occurred at 61.0±0.2° C. and 64.8±0.2° C. respectively.
Theoretical Basis for TdF-based Ligand Binding Affinity Constant
The derivation of TdF-based ligand binding affinity constant (Kd) followed closely those previously formulated by Brandts and Lin [2]. In brief, the binding constant of the ligand at the Tm is expressed as below: […]
where T0 is the midpoint of unfolding for unliganded protein and Tm is the midpoint of unfolding in presence of ligand. [LTm] is free ligand at Tm. The ΔHu and ΔCpu are the enthalpy of unfolding and heat capacity change of unfolding for the protein respectively. Following algorithm derived by Winsor and coworker, the T0, ΔHu and ΔCpu can be determined separately from nonlinear regression fitting the protein alone melting curve:
Where F(T) is the observed fluorescence intensity at any temperature T, Yn and Yu are the predicted fluorescence intensities for fully folded and unfolded protein, respectively; mn and mu are slope correction for changes in Yn and Yu with respect to changes in temperature (analogously replace T0 with Tm in the above equation for liganded protein to yield Tm).
where ΔHL(T) is the van't Hoff enthalpy of ligand binding at temperature T and ΔCpL is the heat capacity upon ligand binding. For simplicity, the ΔCpL and ΔHL(T) were set to zero and −7 kcal/mol respectively. The uncertainty in the calculated ligand binding affinity constant was estimated to be ±50%.

The target of test [1] is unphosphorylated Mouse ERK2 protein (inactive ERK2) (Mus musculus, UniProt P63085). Kind of test: Coupled ERK2 (cERK) assay, coupled MEK1/ERK2 IMAP. Type of test: biochemical. As to conditions: 30 min preincubation with inactive ERK2, then activation by human MEK1; 30 μM ATP; fluorescence polarization; read-out: cERK2 IC50. An excerpt: • 1. M. W. Pantoliana, E. C. Petrella, J. D. Kwasnoski, V. S. Lobanov, J. Myslik, E. Graf, T. Carver, E. Asel, B. A. Springer, P. Lane, F. R. Salemme, High-density miniaturized thermal shift assays as a general strategy for drug discovery, J. Biomol. Screen 6 (2001) 429-440 • 2. J. F. Brandts, L.-N. Lin, Study of strong to ultratight protein interactions using differential scanning calorimetry, Biochemistry 29 (1990) 6927-6940 • 3. Mayhood, T. W., Windsor, W. T., Ligand binding affinity determined by temperature-dependent circular dichroism: Cyclin-dependent kinase 2 inhibitors, Analytical Biochemistry 345 (2005) 187-197 Coupled ERK2 (cERK) Assay:
14 μl of kinase buffer (10 mM Tris.HCl pH 7.2, 10 mM MgCl2, 0.01% Tween-20, 1 mM DTT) containing 0.4 ng unphosphorylated Mouse ERK2 protein was added to each well of a black 384-well assay plate. […] DMSO concentration during initial incubation is 6.7%. ERK2 activity was determined to be insensitive to DMSO concentrations up to 20%. ERK2 was then activated and it's kinase activity measured by the addition of 10 μl kinase buffer with the following components (final concentration per reaction): 2 ng active (phosphorylated) human MEK1 protein and 4 μM (total) ERK2 IMAP substrate peptides (3.9 μM unlabeled IPTTPITTTYFFFK-CONH2 and 100 nM IPTTPITTTYFFFK(5-carboxyfluorescein)-CONH2) and 30 μM ATP. DMSO concentration during ERK activation was 4%. After one hour, reactions were terminated by addition of 60 μl IMAP detections beads in binding buffer (Molecular Devices). Binding was allowed to equilibrate for 30 minutes before reading the plate on an LJL Analyst Fluorescence Polarization plate reader. […] Active compounds were reconfirmed in an independent assay.
A general note: Polarisation of emitted light reports the rotation of a fluorescent probe.

The target in test [2] is fully phosphorylated, active Mouse ERK2 protein (Mus musculus, UniProt P63085). Description: Active ERK2 (aERK) assay, IMAP format. Type of test: biochemical. The settings on record: 30 min preincubation; 1 μM substrate peptide, 30 μM ATP; fluorescence polarization; read-out: aERK2 IC50. The protocol: Active ERK2 (aERK) Assay:
Activated ERK2 activity was also determined in the IMAP assay format using the procedure outlined above. 1 μl of 25× compound was added to 14 μl of kinase buffer containing 0.25 ng fully phosphorylated, active Mouse ERK2 protein. Following a 30 minute incubation, the reactions were initiated by addition of 10 μl of kinase buffer containing 1 μM ERK2 IMAP substrate peptide (0.9 μM unlabeled IPTTPITTTYFFFK--CONH2 and 100 nM IPTTPITTTYFFFK(5-carboxyfluorescein)-CONH2) and 30 μM ATP. Reactions proceeded for 30 minutes before termination by addition of 60 μl IMAP detection beads in binding buffer. Plates were read as above after 30 minute binding equilibration. Active compounds were reconfirmed in an independent assay.

The structures appear in SMILES notation.

Chain of ERK protein (P28482 2-360): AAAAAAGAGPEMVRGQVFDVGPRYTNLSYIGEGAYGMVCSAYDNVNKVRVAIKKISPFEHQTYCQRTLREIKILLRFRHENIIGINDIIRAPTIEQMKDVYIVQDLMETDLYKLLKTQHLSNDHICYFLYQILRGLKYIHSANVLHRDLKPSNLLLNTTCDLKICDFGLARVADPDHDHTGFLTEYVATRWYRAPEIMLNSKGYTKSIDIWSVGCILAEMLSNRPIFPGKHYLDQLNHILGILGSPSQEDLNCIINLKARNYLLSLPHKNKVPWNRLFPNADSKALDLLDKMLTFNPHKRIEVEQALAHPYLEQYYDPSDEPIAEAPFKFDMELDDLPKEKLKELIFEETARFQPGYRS
Chain of fully phosphorylated, active Mouse ERK2 protein (P63085 whole entry): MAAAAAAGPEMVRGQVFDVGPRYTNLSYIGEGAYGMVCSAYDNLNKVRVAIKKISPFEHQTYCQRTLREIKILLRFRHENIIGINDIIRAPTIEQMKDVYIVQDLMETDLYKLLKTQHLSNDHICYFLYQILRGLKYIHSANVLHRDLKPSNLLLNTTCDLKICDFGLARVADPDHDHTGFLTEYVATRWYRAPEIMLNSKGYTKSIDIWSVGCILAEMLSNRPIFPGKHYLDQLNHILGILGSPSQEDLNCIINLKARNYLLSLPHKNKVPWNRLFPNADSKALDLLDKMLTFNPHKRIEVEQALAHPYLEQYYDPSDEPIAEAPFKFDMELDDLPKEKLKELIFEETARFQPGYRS
Chain of unphosphorylated Mouse ERK2 protein (inactive ERK2) (P63085 whole entry): as above

On to `O=C(Nc1ccc2[nH]nc(-c3ccncc3)c2c1)C1CN(Cc2ccccn2)CCO1` (stereo not drawn) [Compound 5, N-[3-(4-PYRIDINYL)-1H-INDAZOL-5-YL]-4-(2-PYRIDINYLMETHYL)-2-MORPHOLINECARBOXAMIDE], for which the Kd at ERK protein was 647 nM. Also, the IC50 in test [1] is 2440 nM; in test [2], 1070 nM.

As for `O=C(Nc1ccc2[nH]nc(-c3ccncc3)c2c1)C1CN(Cc2ccccc2Cl)CCS1` (stereo not drawn) [Compound 9, 4-[(2-CHLOROPHENYL)METHYL]-N-[3-(4-PYRIDINYL)-1H-INDAZOL-5-YL]-2-THIOMORPHOLINECARBOXAMIDE], the Kd at ERK protein is 20 nM. Also, the IC50 in test [1] was found to be 42.4 nM; in test [2] it was 54.2 nM.

For `O=C(Nc1ccc2[nH]nc(-c3ccncc3)c2c1)C1CN(Cc2ccccc2F)CCS1` (stereo not drawn) [Compound 10, 4-[(2-FLUOROPHENYL)METHYL]-N-[3-(4-PYRIDINYL)-1H-INDAZOL-5-YL]-2-THIOMORPHOLINECARBOXAMIDE], the Kd on ERK protein is 15 nM. Besides, the IC50 is 36.4 nM in test [1] and 77.2 nM in test [2].

Consider `Cc1nc(CN2CCSC(C(=O)Nc3ccc4[nH]nc(-c5ccncc5)c4c3)C2)cs1` (stereo not drawn) [Compound 11, 4-[(2-METHYL-4-THIAZOLYL)METHYL]-N-[3-(4-PYRIDINYL)-1H-INDAZOL-5-YL]-2-THIOMORPHOLINECARBOXAMIDE], for which the Kd on ERK protein is 616 nM. The IC50 is 840 nM in test [1] and 475 nM in test [2].

For `O=C(Nc1ccc2[nH]nc(-c3ccncc3)c2c1)C1CNCCO1` (stereo not drawn) [Compound 16, N-[3-(4-PYRIDINYL)-1H-INDAZOL-5-YL]-2-MORPHOLINECARBOXAMIDE], the Kd at ERK protein was 13500 nM. Also, the IC50 in test [1] is 2140 nM; in test [2], 852 nM.

Consider `O=C(Nc1ccc2[nH]nc(-c3ccncc3)c2c1)C1CNCCS1` (stereo not drawn) [Compound 17, N-[3-(4-PYRIDINYL)-1H-INDAZOL-5-YL]-2-THIOMORPHOLINECARBOXAMIDE], for which the Kd at ERK protein was 5630 nM. The IC50 in test [1] stood at 109 nM; in test [2], 124 nM.

Regarding `Cc1nc(CN2CCOC(C(=O)Nc3ccc4[nH]nc(-c5ccncc5)c4c3)C2)cs1` (stereo not drawn) [Compound 18, 4-[(2-METHYL-4-THIAZOLYL)METHYL]-N-[3-(4-PYRIDINYL)-1H-INDAZOL-5-YL]-2-MORPHOLINECARBOXAMIDE], the Kd on ERK protein is 571 nM. Moreover, the values for the IC50 in test [1] and in test [2] were 1170 nM and 18100 nM, respectively.

On to `O=C(Nc1ccc2[nH]nc(-c3ccncc3)c2c1)C1CN(Cc2cccnc2)CCO1` (stereo not drawn) [Compound 19, N-[3-(4-PYRIDINYL)-1H-INDAZOL-5-YL]-4-(3-PYRIDINYLMETHYL)-2-MORPHOLINECARBOXAMIDE], for which the Kd on ERK protein is 517 nM. The IC50 in test [1] was 2200 nM; in test [2], 17000 nM.

Consider `O=C(Nc1ccc2[nH]nc(-c3ccncc3)c2c1)C1CN(Cc2cccc(Cl)c2)CCO1` (stereo not drawn) [Compound 29, 4-[(3-CHLOROPHENYL)METHYL]-N-[3-(4-PYRIDINYL)-1H-INDAZOL-5-YL]-2-MORPHOLINECARBOXAMIDE], for which the Kd on ERK protein is 141 nM. For the same compound, the IC50 in test [1] turned out to be 151 nM; in test [2] it was 123 nM.

For the compound `CSc1ccc(CN2CCOC(C(=O)Nc3ccc4[nH]nc(-c5ccncc5)c4c3)C2)cc1` (stereo not drawn) [Compound 34, 4-[[4-(METHYLTHIO)PHENYL]METHYL]-N-[3-(4-PYRIDINYL)-1H-INDAZOL-5-YL]-2-MORPHOLINECARBOXAMIDE], the Kd at ERK protein was 423 nM. Also, the IC50 was 508 nM in test [1] and 957 nM in test [2].

On to `COc1ccccc1CN1CCOC(C(=O)Nc2ccc3[nH]nc(-c4ccncc4)c3c2)C1` (stereo not drawn) [Compound 35, 4-[(2-METHOXYPHENYL)METHYL]-N-[3-(4-PYRIDINYL)-1H-INDAZOL-5-YL]-2-MORPHOLINECARBOXAMIDE], for which, on ERK protein, the Kd is 79 nM. The IC50 in test [1] came out at 80.9 nM; in test [2] it was 37.9 nM.

As to `O=C(Nc1ccc2[nH]nc(-c3ccncc3)c2c1)C1CN(Cc2ccccc2)CCS1` (stereo not drawn) [Compound 36, 4-(PHENYLMETHYL)-N-[3-(4-PYRIDINYL)-1H-INDAZOL-5-YL]-2-THIOMORPHOLINECARBOXAMIDE], the Kd at ERK protein was 62 nM. Moreover, the IC50 was found to be 166 nM in test [1] and 1840 nM in test [2].

Consider `O=C(Nc1ccc2[nH]nc(-c3ccncc3)c2c1)C1CN(Cc2c(F)cccc2Cl)CCO1` (stereo not drawn) [Compound 37, 4-[(2-CHLORO-6-FLUOROPHENYL)METHYL]-N-[3-(4-PYRIDINYL)-1H-INDAZOL-5-YL]-2-MORPHOLINECARBOXAMIDE], for which, on ERK protein, the Kd was 27 nM. For the same compound, the half-inhibitory concentration (IC50) in test [1] is 173 nM; in test [2], 111 nM.

Regarding `O=C(Nc1ccc2[nH]nc(-c3ccncc3)c2c1)C1CN(Cc2cccc(F)c2F)CCO1` (stereo not drawn) [Compound 43, 4-[(2,3-DIFLUOROPHENYL)METHYL]-N-[3-(4-PYRIDINYL)-1H-INDAZOL-5-YL]-2-MORPHOLINECARBOXAMIDE], the Kd on ERK protein was 214 nM. The IC50 was found to be 218 nM in test [1] and 139 nM in test [2].

`O=C(Nc1ccc2[nH]nc(-c3ccncc3)c2c1)C1CN(Cc2c(F)cccc2F)CCO1` (stereo not drawn) [Compound 44, 4-[(2,6-DIFLUOROPHENYL)METHYL]-N-[3-(4-PYRIDINYL)-1H-INDAZOL-5-YL]-2-MORPHOLINECARBOXAMIDE]: on ERK protein, the Kd was 165 nM. In addition, the IC50 in test [1] was determined as 109 nM; in test [2] it was 69.2 nM.

Regarding `O=C(Nc1ccc2[nH]nc(-c3ccncc3)c2c1)C1CN(Cc2ccc(F)cc2F)CCO1` (stereo not drawn) [Compound 45, 4-[(2,4-DIFLUOROPHENYL)METHYL]-N-[3-(4-PYRIDINYL)-1H-INDAZOL-5-YL]-2-MORPHOLINECARBOXAMIDE], the Kd at ERK protein is 80 nM. The IC50 in test [1] is 275 nM; in test [2], 138 nM.

As for `COc1ccc(F)c(CN2CCOC(C(=O)Nc3ccc4[nH]nc(-c5ccncc5)c4c3)C2)c1` (stereo not drawn) [Compound 46, 4-[(2-FLUORO-5-METHOXYPHENYL)METHYL]-N-[3-(4-PYRIDINYL)-1H-INDAZOL-5-YL]-2-MORPHOLINECARBOXAMIDE], at ERK protein, the equilibrium dissociation constant (Kd) was 167 nM. The IC50 in test [1] and in test [2] was 148 nM throughout.

Consider `O=C(Nc1ccc2[nH]nc(-c3ccncc3)c2c1)C1CN(Cc2c(F)ccc(Cl)c2F)CCO1` (stereo not drawn) [Compound 47, 4-[(3-CHLORO-2,6-DIFLUOROPHENYL)METHYL]-N-[3-(4-PYRIDINYL)-1H-INDAZOL-5-YL]-2-MORPHOLINECARBOXAMIDE], for which the Kd at ERK protein was 223 nM. The values for the IC50 in test [1] and in test [2] were 452 nM and 581 nM, respectively.

Broadly, the Kd is the equilibrium constant for the complex coming apart. As a reminder, the IC50 is the midpoint of a concentration-inhibition curve.

Source of the values: patent US8946216B2, “Indazole derivatives useful as ERK inhibitors” (Merck Sharp & Dohme Corp., priority 2010, dated 2015).
